{"source": "patent US20240239766A1", "about": "“3-AMINO PIPERIDYL SODIUM CHANNEL INHIBITORS” (Genentech, Inc., priority 2021, published 2024)", "biological_target": "hNav1.7 (Homo sapiens (Human), UniProt Q15858)", "sequence (Q15858 other isoform, or with tags, fused parts or gaps)": "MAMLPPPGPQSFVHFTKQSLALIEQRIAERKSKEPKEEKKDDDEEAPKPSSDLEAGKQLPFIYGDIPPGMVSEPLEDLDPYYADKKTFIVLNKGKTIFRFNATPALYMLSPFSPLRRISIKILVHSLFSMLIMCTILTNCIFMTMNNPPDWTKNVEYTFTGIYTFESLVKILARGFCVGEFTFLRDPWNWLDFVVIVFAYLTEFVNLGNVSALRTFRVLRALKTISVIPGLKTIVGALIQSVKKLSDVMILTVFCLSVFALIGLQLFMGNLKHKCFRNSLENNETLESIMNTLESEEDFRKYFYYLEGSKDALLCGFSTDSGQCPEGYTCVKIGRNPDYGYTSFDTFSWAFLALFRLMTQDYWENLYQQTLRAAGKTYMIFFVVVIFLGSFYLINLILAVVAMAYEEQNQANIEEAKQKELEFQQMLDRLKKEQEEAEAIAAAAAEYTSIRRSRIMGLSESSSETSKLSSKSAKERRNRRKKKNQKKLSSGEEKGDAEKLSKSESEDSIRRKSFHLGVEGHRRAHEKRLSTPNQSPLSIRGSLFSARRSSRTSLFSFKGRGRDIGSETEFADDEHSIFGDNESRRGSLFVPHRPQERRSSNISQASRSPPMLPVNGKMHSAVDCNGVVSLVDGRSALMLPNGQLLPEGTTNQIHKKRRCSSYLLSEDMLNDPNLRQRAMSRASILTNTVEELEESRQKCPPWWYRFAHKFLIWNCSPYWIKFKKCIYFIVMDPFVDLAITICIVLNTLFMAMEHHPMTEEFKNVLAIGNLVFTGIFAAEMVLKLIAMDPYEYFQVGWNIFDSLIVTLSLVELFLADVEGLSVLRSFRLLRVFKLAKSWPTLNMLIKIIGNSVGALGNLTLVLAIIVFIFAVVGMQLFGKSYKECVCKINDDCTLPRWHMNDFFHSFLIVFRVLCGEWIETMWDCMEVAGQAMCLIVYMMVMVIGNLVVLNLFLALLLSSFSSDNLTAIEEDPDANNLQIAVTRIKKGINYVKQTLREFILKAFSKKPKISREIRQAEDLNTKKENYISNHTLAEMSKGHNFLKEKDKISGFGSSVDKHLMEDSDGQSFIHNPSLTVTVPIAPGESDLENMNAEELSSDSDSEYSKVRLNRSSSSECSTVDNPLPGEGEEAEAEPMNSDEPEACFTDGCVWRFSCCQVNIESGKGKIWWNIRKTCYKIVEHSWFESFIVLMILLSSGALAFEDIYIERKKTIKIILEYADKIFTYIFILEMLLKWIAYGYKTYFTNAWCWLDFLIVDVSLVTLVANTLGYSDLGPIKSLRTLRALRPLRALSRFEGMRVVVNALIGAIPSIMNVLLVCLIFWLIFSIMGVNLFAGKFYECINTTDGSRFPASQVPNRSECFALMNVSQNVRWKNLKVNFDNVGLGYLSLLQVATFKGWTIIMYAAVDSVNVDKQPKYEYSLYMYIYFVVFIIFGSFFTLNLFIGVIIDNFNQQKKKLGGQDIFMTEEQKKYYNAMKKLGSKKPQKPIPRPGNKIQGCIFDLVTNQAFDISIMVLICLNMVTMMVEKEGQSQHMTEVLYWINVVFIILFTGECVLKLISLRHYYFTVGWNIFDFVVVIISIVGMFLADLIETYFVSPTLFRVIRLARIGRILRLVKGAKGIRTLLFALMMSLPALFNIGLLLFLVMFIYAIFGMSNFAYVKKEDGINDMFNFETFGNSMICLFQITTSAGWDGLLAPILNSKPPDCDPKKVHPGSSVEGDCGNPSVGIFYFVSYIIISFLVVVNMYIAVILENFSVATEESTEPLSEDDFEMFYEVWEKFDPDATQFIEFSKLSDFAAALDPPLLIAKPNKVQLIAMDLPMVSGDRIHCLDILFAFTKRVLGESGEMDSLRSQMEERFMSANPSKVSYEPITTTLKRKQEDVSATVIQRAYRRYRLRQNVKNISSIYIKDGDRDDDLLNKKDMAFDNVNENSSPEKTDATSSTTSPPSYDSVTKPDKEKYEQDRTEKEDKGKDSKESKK", "assay": "Patch voltage clamp electrophysiology assay (EP), Syncropatch 384PE, CHO cells expressing Nav1.7", "type": "cell-based", "conditions": "holding potential −50 mV; 7.5 min compound incubation; read-out: EP SP hNav1.7 EVO (IC50)", "description": "Example 101c: Electrophysiological Assay (EP) (In Vitro Assay)\nPatch voltage clamp electrophysiology allows for the direct measurement and quantification of block of voltage-gated sodium channels (NaV's), and allows the determination of the time- and voltage-dependence of block which has been interpreted as differential binding to the resting, open, and inactivated states of the sodium channel (Hille, B., Journal of General Physiology (1977), 69: 497-515).\nThe following voltage clamp electrophysiology studies are performed on representative compounds using cells heterologously expressing Nav1.7 or Nav1.5 channels. cDNAsfor Nav1.7 (NM_002977) and Nav1.5 (AC137587) are stably expressed in Chinese Hamstr Ovary (CHO) cells and CHL (Chinese Hamster Lung) cells respectively. Sodium currents are measured in the whole-cell configuration using Syncropatch 384PE (Nanlon Technologies, Germany). 1NPC®-384 chips with custom medium resistance and single hole mode are used. Internal solution consists of (in mM): […], 10 CsCl, 20 EGTA, and 10 Hepes (pH adjusted to 7.2); and external solution contains (in mM): 60 NMDG, 80 NaCl, 4 KCl, 1 MgCl2, 2 CaCl2), 2 D-Glucose monohydrate, 10 Hepes (pH adjusted to 7.4 with NaOH).\nAfter system flushing, testing compounds are dissolved in external solution containing 0.1% Pluronic F-127. The chip is moved into the measuring head and the instrument primes the chip with external and internal solutions. 10 μl cells are added to the chip from a cell hotel, and a negative pressure of −50 mBar is applied to form a seal. Following treatment with seal enhancer solution and wash-off with external solution, negative pressure of −250 mbar is applied for 1 second to achieve the whole-cell configuration, followed by three washing steps in external solution. 20 μl of compounds is added to 40 μl in each well (1:3 dilution of compounds), and after mixing, 20 μl is removed so the volume is retained at 40 ul. After approximately 13 minutes recordings, 20 μl/well of 2 uM TTX, or 333 uM Tetracaine (for Nav1.5) is added to achieve full block.\nFor voltage protocol, an holding potential of −50 mV is applied during the whole experiment. A depolarizing step is applied to −10 mV for 10 ms, followed by a hyperpolarization step to −150 mV for 20 ms to allow channel recovery from inactivation. A second depolarizing step is applied from −150 mV to −10 mV for 10 ms, where currents are measured to derive blocking effects of compounds. Inhibition is determined based on 7.5 min of compound incubation.", "note": "Where a name gives a salt, the structure may show the parent alone."}
{"smiles": "CN(C)[C@]1(CCc2cccc(C(F)(F)F)c2)CCCN(c2ccc(S(=O)(=O)Nc3ccncn3)c(F)c2)C1", "note": "(single isomer, unassigned) [Example 1]", "values": [{"measurement": "IC50", "value": 6.88, "unit": "nM"}]}
{"smiles": "CN(C)[C@@]1(CCc2cccc(C(F)(F)F)c2)CCCN(c2ccc(S(=O)(=O)Nc3ccncn3)c(F)c2)C1", "note": "(single isomer, unassigned) [Example 2, formate]", "values": [{"measurement": "IC50", "value": 601, "unit": "nM"}]}
{"smiles": "CN[C@@]1(CCc2cccc(C(F)(F)F)c2)CCCN(c2ccc(S(=O)(=O)Nc3ccncn3)c(F)c2)C1", "note": "(single isomer, unassigned) [Example 4]", "values": [{"measurement": "IC50", "value": 638, "unit": "nM"}]}
{"smiles": "CN(C)[C@@]1(CCc2ccccc2)CCCN(c2ccc(S(=O)(=O)Nc3ccncn3)c(F)c2)C1", "note": "(single isomer, unassigned) [Example 5]", "values": [{"measurement": "IC50", "value": 10000, "unit": "nM"}]}
{"smiles": "CN(C)[C@]1(CCc2ccccc2)CCCN(c2ccc(S(=O)(=O)Nc3ccncn3)c(F)c2)C1", "note": "(single isomer, unassigned) [Example 6]", "values": [{"measurement": "IC50", "value": 48.9, "unit": "nM"}]}
{"smiles": "CN(C)[C@@]1(CCc2ccc(C(F)(F)F)cc2)CCCN(c2ccc(S(=O)(=O)Nc3ccncn3)c(F)c2)C1", "note": "(single isomer, unassigned) [Example 7]", "values": [{"measurement": "IC50", "value": 12.4, "unit": "nM"}]}
{"smiles": "CN(C)[C@]1(CCc2ccc(C(F)(F)F)cc2)CCCN(c2ccc(S(=O)(=O)Nc3ccncn3)c(F)c2)C1", "note": "(single isomer, unassigned) [Example 8]", "values": [{"measurement": "IC50", "value": 2070, "unit": "nM"}]}
{"smiles": "CN(C)[C@@]1(CCc2cccc(C(F)(F)F)c2)CCCN(c2cc(F)c(S(=O)(=O)Nc3ccncn3)cc2Cl)C1", "note": "(single isomer, unassigned) [Example 11]", "values": [{"measurement": "IC50", "value": 742, "unit": "nM"}]}
{"smiles": "CN(C)[C@]1(CCc2cccc(C(F)(F)F)c2)CCCN(c2cc(F)c(S(=O)(=O)Nc3ccncn3)cc2Cl)C1", "note": "(single isomer, unassigned) [Example 12]", "values": [{"measurement": "IC50", "value": 51.5, "unit": "nM"}]}
{"smiles": "CN(C)[C@@]1(CCc2cccc(C(F)(F)F)c2)CCCN(c2ccc(S(=O)(=O)Nc3nccs3)c(F)c2)C1", "note": "(single isomer, unassigned) [Example 13]", "values": [{"measurement": "IC50", "value": 1.53, "unit": "nM"}]}
{"smiles": "CN(C)[C@]1(CCc2cccc(C(F)(F)F)c2)CCCN(c2ccc(S(=O)(=O)Nc3nccs3)c(F)c2)C1", "note": "(single isomer, unassigned) [Example 14]", "values": [{"measurement": "IC50", "value": 58.7, "unit": "nM"}]}
{"smiles": "CN(C)[C@@]1(CCc2cccc(C(F)(F)F)c2)CCCN(c2cc(F)c(S(=O)(=O)Nc3ccncn3)c(F)c2)C1", "note": "(single isomer, unassigned) [Example 15]", "values": [{"measurement": "IC50", "value": 288, "unit": "nM"}]}
{"smiles": "CN(C)[C@]1(CCc2cccc(C(F)(F)F)c2)CCCN(c2cc(F)c(S(=O)(=O)Nc3ccncn3)c(F)c2)C1", "note": "(single isomer, unassigned) [Example 16]", "values": [{"measurement": "IC50", "value": 1.41, "unit": "nM"}]}
{"smiles": "CN(C)[C@@]1(CCc2cccc(C(F)(F)F)c2)CCCN(c2cc(F)c(S(=O)(=O)Nc3ccncn3)c(Cl)c2)C1", "note": "(single isomer, unassigned) [Example 17]", "values": [{"measurement": "IC50", "value": 314, "unit": "nM"}]}
{"smiles": "CN(C)[C@]1(CCc2cccc(C(F)(F)F)c2)CCCN(c2cc(F)c(S(=O)(=O)Nc3ccncn3)c(Cl)c2)C1", "note": "(single isomer, unassigned) [Example 18]", "values": [{"measurement": "IC50", "value": 1.83, "unit": "nM"}]}
{"smiles": "CN(C)[C@@]1(CCc2ccc(Cl)c(C(F)(F)F)c2)CCCN(c2ccc(S(=O)(=O)Nc3ccncn3)c(F)c2)C1", "note": "(single isomer, unassigned) [Example 19]", "values": [{"measurement": "IC50", "value": 60.4, "unit": "nM"}]}
{"smiles": "CN(C)[C@]1(CCc2ccc(Cl)c(C(F)(F)F)c2)CCCN(c2ccc(S(=O)(=O)Nc3ccncn3)c(F)c2)C1", "note": "(single isomer, unassigned) [Example 20, formate]", "values": [{"measurement": "IC50", "value": 2.74, "unit": "nM"}]}
{"smiles": "O=S(=O)(Nc1ccncn1)c1ccc(N2CCC[C@](CCc3cccc(C(F)(F)F)c3)(N3CCC3)C2)cc1F", "note": "(single isomer, unassigned) [Example 21]", "values": [{"measurement": "IC50", "value": 3180, "unit": "nM"}]}
{"smiles": "O=S(=O)(Nc1ccncn1)c1ccc(N2CCC[C@@](CCc3cccc(C(F)(F)F)c3)(N3CCC3)C2)cc1F", "note": "(single isomer, unassigned) [Example 22]", "values": [{"measurement": "IC50", "value": 84.4, "unit": "nM"}]}
{"smiles": "O=S(=O)(Nc1ccncn1)c1ccc(N2CCC[C@](CCc3cccc(C(F)(F)F)c3)(N3CCCC3)C2)cc1F", "note": "(single isomer, unassigned) [Example 23]", "values": [{"measurement": "IC50", "value": 8.62, "unit": "nM"}]}
{"smiles": "O=S(=O)(Nc1ccncn1)c1ccc(N2CCC[C@@](CCc3cccc(C(F)(F)F)c3)(N3CCCC3)C2)cc1F", "note": "(single isomer, unassigned) [Example 24]", "values": [{"measurement": "IC50", "value": 439, "unit": "nM"}]}
{"smiles": "O=S(=O)(Nc1ccncn1)c1ccc(N2CCC[C@](CCc3cccc(C(F)(F)F)c3)(N3CCCCC3)C2)cc1F", "note": "(single isomer, unassigned) [Example 25, formate]", "values": [{"measurement": "IC50", "value": 312, "unit": "nM"}]}
{"smiles": "O=S(=O)(Nc1ccncn1)c1ccc(N2CCC[C@@](CCc3cccc(C(F)(F)F)c3)(N3CCCCC3)C2)cc1F", "note": "(single isomer, unassigned) [Example 26, formate]", "values": [{"measurement": "IC50", "value": 19.5, "unit": "nM"}]}
{"smiles": "CN(C)CCN(C)[C@@]1(CCc2cccc(C(F)(F)F)c2)CCCN(c2ccc(S(=O)(=O)Nc3ccncn3)c(F)c2)C1", "note": "(single isomer, unassigned) [Example 27, formate]", "values": [{"measurement": "IC50", "value": 2150, "unit": "nM"}]}
{"smiles": "CN(C)CCN(C)[C@]1(CCc2cccc(C(F)(F)F)c2)CCCN(c2ccc(S(=O)(=O)Nc3ccncn3)c(F)c2)C1", "note": "(single isomer, unassigned) [Example 28, formate]", "values": [{"measurement": "IC50", "value": 8.08, "unit": "nM"}]}
{"smiles": "CN1CC(CN(C)[C@@]2(CCc3cccc(C(F)(F)F)c3)CCCN(c3ccc(S(=O)(=O)Nc4ccncn4)c(F)c3)C2)C1", "note": "(single isomer, unassigned) [Example 29]", "values": [{"measurement": "IC50", "value": 2.66, "unit": "nM"}]}
{"smiles": "CN1CC(CN(C)[C@]2(CCc3cccc(C(F)(F)F)c3)CCCN(c3ccc(S(=O)(=O)Nc4ccncn4)c(F)c3)C2)C1", "note": "(single isomer, unassigned) [Example 30, formate]", "values": [{"measurement": "IC50", "value": 13.5, "unit": "nM"}]}
{"smiles": "CN(C)[C@@]1(CCc2cc(C(F)(F)F)ccc2Cl)CCCN(c2cc(F)c(S(=O)(=O)Nc3ccncn3)c(F)c2)C1", "note": "(single isomer, unassigned) [Example 32]", "values": [{"measurement": "IC50", "value": 425, "unit": "nM"}]}
{"smiles": "CN(C)[C@]1(CCc2cc(C(F)(F)F)ccc2Cl)CCCN(c2cc(F)c(S(=O)(=O)Nc3ccncn3)c(F)c2)C1", "note": "(single isomer, unassigned) [Example 33, formate]", "values": [{"measurement": "IC50", "value": 1.89, "unit": "nM"}]}
{"smiles": "CN1CC(N(C)[C@@]2(CCc3cccc(C(F)(F)F)c3)CCCN(c3ccc(S(=O)(=O)Nc4ccncn4)c(F)c3)C2)C1", "note": "(single isomer, unassigned) [Example 34]", "values": [{"measurement": "IC50", "value": 1.82, "unit": "nM"}]}
{"smiles": "CN1CCC(N(C)[C@@]2(CCc3cccc(C(F)(F)F)c3)CCCN(c3ccc(S(=O)(=O)Nc4ccncn4)c(F)c3)C2)CC1", "note": "(single isomer, unassigned) [Example 36]", "values": [{"measurement": "IC50", "value": 2690, "unit": "nM"}]}
{"smiles": "CN1CCC(N(C)[C@]2(CCc3cccc(C(F)(F)F)c3)CCCN(c3ccc(S(=O)(=O)Nc4ccncn4)c(F)c3)C2)CC1", "note": "(single isomer, unassigned) [Example 37, formate]", "values": [{"measurement": "IC50", "value": 7.22, "unit": "nM"}]}
{"smiles": "CN(C)[C@@]1(CCc2cccc(C(F)(F)F)c2)CCCN(c2cc(F)c(S(=O)(=O)Nc3ccncn3)cc2F)C1", "note": "(single isomer, unassigned) [Example 38]", "values": [{"measurement": "IC50", "value": 28.8, "unit": "nM"}]}
{"smiles": "CN(C)[C@]1(CCc2cccc(C(F)(F)F)c2)CCCN(c2cc(F)c(S(=O)(=O)Nc3ccncn3)cc2F)C1", "note": "(single isomer, unassigned) [Example 39]", "values": [{"measurement": "IC50", "value": 9110, "unit": "nM"}]}
{"smiles": "CN(C)[C@]1(CCc2cccc(C(F)(F)F)c2Cl)CCCN(c2cc(F)c(S(=O)(=O)Nc3ccncn3)c(F)c2)C1", "note": "(single isomer, unassigned) [Example 41]", "values": [{"measurement": "IC50", "value": 1.07, "unit": "nM"}]}
{"smiles": "CN(C)[C@@]1(CCc2cc(Cl)cc(C(F)(F)F)c2)CCCN(c2cc(F)c(S(=O)(=O)Nc3ccncn3)c(F)c2)C1", "note": "(single isomer, unassigned) [Example 42]", "values": [{"measurement": "IC50", "value": 52, "unit": "nM"}]}
{"smiles": "CN1CC[C@@H](N(C)[C@@]2(CCc3cccc(C(F)(F)F)c3)CCCN(c3cc(F)c(S(=O)(=O)Nc4ccncn4)c(F)c3)C2)C1", "note": "(single isomer, unassigned) [Example 44]", "values": [{"measurement": "IC50", "value": 195, "unit": "nM"}]}
